The text below walks through data of patent publication US20250136607A1 (REGOR PHARMACEUTICALS, INC., priority 2021, published 2025).

Where two headings read alike, the source gives them in different places.

For assay [1], the system named is Citrullinated Histone H3 in dHL-60 cells (differentiated HL-60). The assay can be described thus: dHL-60 Cit-H3 ELISA assay. As to conditions: Homo sapiens, read-out: Average IC50 Abs. Type of assay: cell-based, human. On the procedure: Cell culture: HL-60 cells were grown in IMDM+20% FBS+1% PS. The suspension cells were split into 1:5 with fresh media every 2-3 days to maintain cell density between 1×10^5 to 1×10^6 viable cells/mL. HL-60 cells differentiation: HL-60 cells were diluted to 1×10^5 cells/mL and differentiated into neutrophil-like cells with 100 mM DMF treatment for 72 hours in flask at 37° C., 5% CO2. dHL-60 Cells plating: • 1) HL-60 cells were collected, and the plate was centrifuged at 1000 rpm for 5 min. • 2) The HL-60 cells were diluted to 1.25×10^6 cells/mL and plated into a 96-well plate with 80 μL/well (i.e., 1×10^5/well). The plate was then incubated in the incubator (5% CO2, 37° C.) for 30 min to allow cells to adhere. Compound treatment: • 1) Preparation of compound serial dilution (source plate 500×, final DMSO concentration: 0.2%): briefly, compounds were dissolved in 100% DMSO to a concentration of 20 mM (the stock solution) and a 3-fold serial dilution with 8-point doses was performed. • 2) A 10× compound solution was pipetted up and down; and 10 μL/well of compounds were added into each well and incubated for 30 min. Stimulation with 25 μM A23187: • 1) A solution of A23187 (250 μM) in complete IMDM (IMDM+10% FBS+1% PS) containing 150 U/mL S7 Nuclease was prepared. The obtained solution was added 10 μL/well into each well and incubated for 3 h in the incubator (5% CO2, 37° C.). • 2) The dHL-60 cells treated with 10 μL/well complete IMDM without A23187 worked as negative control. Sample preparation: • 1) EDTA (0.5 M, 2 μL/well) were added to all the wells to stop the reaction. • 2) The plate was centrifuged at 1000 rpm for 5 min to collect supernatant. • 3) The supernatant was then diluted at least 1:2 before adding to the ELISA plate for citrullinated H3 analysis.
The standard was reconstituted with 2 mL of Assay buffer to 500 ng/mL. The reconstituted standard was relatively unstable at 4° C. and should be used within 3 hr after reconstitution.
• 1) 100 μL of the standards or diluted samples were added to the wells on the ELISA plate. • 2) The plate was covered with Cover Sheet and incubated for 2 h at room temperaturert on an orbital shaker.
On the day of the assay, the reagent was thawed at room temperaturert. For one plate, 1.2 mL of HRP Conjugate were diluted into 10.8 mL of assay buffer. A diluted HRP Conjugate was prepared shortly before use.
• 1) The wells were empties and rinsed four times with 1× wash buffer with 300 μL/well (Low speed). The plate was inverted between wash steps to empty the plate. After the last wash, the inverted plate was gently tapped on absorbent paper to remove the residual wash buffer. • 2) 100 μL of the HRP Conjugate working solution were added to each well of the plate. • 3) The plate was covered with cover sheet and incubated for 1 h at RT on an orbital shaker.
• 1) The wells were empties and rinsed four times with 1× wash buffer with 300 μL/well (low speed). The plate was inverted between wash steps to empty the plate. […] 100 uL of HRP STOP solution were added to each well of the plate.
• 1) Wipe the bottom of the plate with a clean tissue to remove fingerprints, dirt, etc. • 2) Read the plate at a wavelength of 450 nm.
The percent (%) inhibition at each concentration of compound was calculated based on and relative to the signal in the HPE and ZPE wells contained within each assay plate. The HPE wells worked as […], and the ZPE wells didn't contain any compound but rather DMSO (final concentration=0.1%) as […]. The concentrations and % inhibition values for tested compounds were plotted and the concentration of compound required for 50% inhibition (IC50) was determined with a Four-parameter logistic dose response equation. The endpoint value (IC50) for the reference peptide/compound was evaluated in each experiment as a quality control measure. If the endpoint value is within 3-fold of the expected value then the experiment is deemed acceptable. […]

Assay [2] concerns the target Protein arginine deiminase 4 (PAD4) (Homo sapiens, UniProt Q9UM07). The assay can be described thus: PAD4 ammonia release assay. Type of assay: biochemical. As to conditions: for relative potency of separated isomers in the PAD4 biochemical assay: SFC-separated stereoisomer pairs. The procedure, abridged:
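Ammonia release from BAEE substrate (2× mix 600 μM) was measured after 60 min at RT, following 15 min enzyme–compound preincubation (PAD4 2× 20 nM; pH 8.0 HEPES, 2 mM CaCl2, TCEP; 1.25% DMSO). Detection used OPA/DTT/EDTA for 120 min. % inhibition was taken versus reference-compound and DMSO controls; IC50 by four-parameter logistic fit.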

Where [3] appears, read: HL-60, 3 h, stimulation with 25 μM A23187 for 3 h.
Where [4] appears, read: PAD4 ammonia release assay, BAEE substrate, 60 min at RT, read-out: Average IC50 Abs.

Sequence of Protein arginine deiminase 4 (PAD4) (Q9UM07 whole entry): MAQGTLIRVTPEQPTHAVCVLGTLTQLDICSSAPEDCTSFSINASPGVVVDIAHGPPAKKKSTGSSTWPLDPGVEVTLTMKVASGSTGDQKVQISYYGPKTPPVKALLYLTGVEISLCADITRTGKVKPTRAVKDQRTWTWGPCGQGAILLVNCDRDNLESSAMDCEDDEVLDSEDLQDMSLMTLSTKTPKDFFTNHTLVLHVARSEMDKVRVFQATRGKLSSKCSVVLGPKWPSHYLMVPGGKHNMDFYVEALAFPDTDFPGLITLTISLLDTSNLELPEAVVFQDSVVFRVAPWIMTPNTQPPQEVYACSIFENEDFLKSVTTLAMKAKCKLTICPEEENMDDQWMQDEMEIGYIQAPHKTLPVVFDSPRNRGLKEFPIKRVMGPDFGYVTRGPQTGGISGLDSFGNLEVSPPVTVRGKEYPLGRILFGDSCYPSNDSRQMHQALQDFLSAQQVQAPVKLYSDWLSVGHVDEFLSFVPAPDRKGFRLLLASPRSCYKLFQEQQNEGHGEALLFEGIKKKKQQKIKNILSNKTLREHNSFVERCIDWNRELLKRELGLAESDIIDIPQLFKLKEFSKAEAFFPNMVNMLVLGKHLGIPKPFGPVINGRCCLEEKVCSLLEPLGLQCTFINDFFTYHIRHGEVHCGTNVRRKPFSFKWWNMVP

Regarding `CC[C@H]1CNc2cccc3cc(-c4nc5cc(C(=O)N6C[C@H]7CC[C@@H]6[C@@H]7N)cc(F)c5n4C)n1c23` [Example 74, ((1R,4R,7R)-7-amino-2-azabicyclo[2.2.1]heptan-2-yl)(2-((S)-3-ethyl-2,3-dihydro-1H-pyrrolo[1,2,3-de]quinoxalin-5-yl)-7-fluoro-1-methyl-1H-benzo[d]imidazol-5-yl)methanone], the IC50 in assay [1] (setting [3]) and in assay [2] (setting [4]) was no more than 100 nM each time. In addition, in assay [2], the “relative potency of separated isomers in the PAD4 biochemical assay” value was “more potent than Example 73”.
For `CCC1CN(CCCO)c2cccc3cc(-c4nc5cc(C(=O)N6C[C@H](N)C[C@@H](F)C6)cc(OC)c5n4C)n1c23` (stereo partly drawn) [Example 80, ((3R,5R)-3-amino-5-fluoropiperidin-1-yl)(2-(3-ethyl-1-(3-hydroxypropyl)-2,3-dihydro-1H-pyrrolo[1,2,3-de]quinoxalin-5-yl)-7-methoxy-1-methyl-1H-benzo[d]imidazol-5-yl)methanone], the concentration for half-maximal inhibition (IC50) in assay [1] (setting [3]) and in assay [2] (setting [4]) was 100 to 500 nM in each case.
For the molecule `CCC1CN(CCCO)c2cccc3cc(-c4nc5cc(C(=O)N6C[C@H]7CC[C@@H]6[C@@H]7N)cc(OC)c5n4C)n1c23` (stereo partly drawn) [Example 85, ((1R,4R,7R)-7-amino-2-azabicyclo[2.2.1]heptan-2-yl)(2-(3-ethyl-1-(3-hydroxypropyl)-2,3-dihydro-1H-pyrrolo[1,2,3-de]quinoxalin-5-yl)-7-methoxy-1-methyl-1H-benzo[d]imidazol-5-yl)methanone], the IC50 in assay [1] (setting [3]) is no more than 100 nM; in assay [2] (setting [4]), 100 to 500 nM.
For `CCC1CN(CCC(C)(C)O)c2cccc3cc(-c4nc5cc(C(=O)N6C[C@H]7CC[C@@H]6[C@@H]7N)cc(F)c5n4C)n1c23` (stereo partly drawn) [Example 88, ((1R,4R,7R)-7-amino-2-azabicyclo[2.2.1]heptan-2-yl)(2-(3-ethyl-1-(3-hydroxy-3-methylbutyl)-2,3-dihydro-1H-pyrrolo[1,2,3-de]quinoxalin-5-yl)-7-fluoro-1-methyl-1H-benzo[d]imidazol-5-yl)methanone] the same measures were 100 to 500 nM and 100 to 500 nM.
On the same counts, the results for `C#CCn1c(-c2cc3cccc4c3n2C(CC)CN4CCCO)nc2cc(C(=O)N3C[C@H]4CC[C@@H]3[C@@H]4N)cc(F)c21` (stereo partly drawn) [Example 91, ((1R,4R,7R)-7-amino-2-azabicyclo[2.2.1]heptan-2-yl)(2-(3-ethyl-1-(3-hydroxypropyl)-2,3-dihydro-1H-pyrrolo[1,2,3-de]quinoxalin-5-yl)-7-fluoro-1-(prop-2-yn-1-yl)-1H-benzo[d]imidazol-5-yl)methanone] are 100 to 500 nM and 100 to 500 nM.
In the case of `CCC1CN(CCCO)c2cccc3cc(-c4nc5cc(C(=O)N6C[C@H]7CC[C@@H]6[C@@H]7N)cc(F)c5n4CC4COC4)n1c23` (stereo partly drawn) [Example 92, ((1R,4R,7R)-7-amino-2-azabicyclo[2.2.1]heptan-2-yl)(2-(3-ethyl-1-(3-hydroxypropyl)-2,3-dihydro-1H-pyrrolo[1,2,3-de]quinoxalin-5-yl)-7-fluoro-1-(oxetan-3-ylmethyl)-1H-benzo[d]imidazol-5-yl)methanone], the figures for the IC50 in assay [1] (setting [3]) and in assay [2] (setting [4]) were no more than 100 nM and 100 to 500 nM, respectively.
For `CCC1CN(CCC(N)=O)c2cccc3cc(-c4nc5cc(C(=O)N6C[C@H](N)C[C@@H](F)C6)cc(OC)c5n4C)n1c23` (stereo partly drawn) [Example 94, 3-(5-(5-((3R,5R)-3-amino-5-fluoropiperidine-1-carbonyl)-7-methoxy-1-methyl-1H-benzo[d]imidazol-2-yl)-3-ethyl-2,3-dihydro-1H-pyrrolo[1,2,3-de]quinoxalin-1-yl)propanamide] the same measures were 100 to 500 nM and no more than 100 nM.
For `CCC1CN(CCCOC)c2cccc3cc(-c4nc5cc(C(=O)N6C[C@H]7CC[C@@H]6[C@@H]7N)cc(F)c5n4CC)n1c23` (stereo partly drawn) [Example 100, ((1R,4R,7R)-7-amino-2-azabicyclo[2.2.1]heptan-2-yl)(1-ethyl-2-(3-ethyl-1-(3-methoxypropyl)-2,3-dihydro-1H-pyrrolo[1,2,3-de]quinoxalin-5-yl)-7-fluoro-1H-benzo[d]imidazol-5-yl)methanone] the same measures were 100 to 500 nM and 100 to 500 nM.
Turning to `CC(C)C1CN(CCCO)c2cccc3cc(-c4nc5cc(C(=O)N6C[C@H]7CC[C@@H]6[C@@H]7N)cc(F)c5n4C)n1c23` (stereo partly drawn) [Example 103, ((1R,4R,7R)-7-amino-2-azabicyclo[2.2.1]heptan-2-yl)(7-fluoro-2-(1-(3-hydroxypropyl)-3-isopropyl-2,3-dihydro-1H-pyrrolo[1,2,3-de]quinoxalin-5-yl)-1-methyl-1H-benzo[d]imidazol-5-yl)methanone], the IC50 is no more than 100 nM in assay [1] (HL-60, stimulation with 25 μM A23187 for 3 h) and 100 to 500 nM in assay [2] (setting [4]).
Regarding `CC(C)C1CNc2cccc3cc(-c4nc5cc(C(=O)N6C[C@H]7CC[C@@H]6[C@@H]7N)cc(F)c5n4C)n1c23` (stereo partly drawn) [Example 104, ((1R,4R,7R)-7-amino-2-azabicyclo[2.2.1]heptan-2-yl)(7-fluoro-2-(3-isopropyl-2,3-dihydro-1H-pyrrolo[1,2,3-de]quinoxalin-5-yl)-1-methyl-1H-benzo[d]imidazol-5-yl)methanone], the IC50 in assay [1] (setting [3]) is no more than 100 nM; in assay [2] (PAD4 activity comparison, read-out: PAD4 Ammonia assay IC50) it was 130 nM; in assay [2] (setting [4]), 100 to 500 nM.
Regarding `CC(C)[C@H]1CNc2cccc3cc(-c4nc5cc(C(=O)N6C[C@H]7CC[C@@H]6[C@@H]7N)cc(F)c5n4C)n1c23` [Example 106, ((1R,4R,7R)-7-amino-2-azabicyclo[2.2.1]heptan-2-yl)(7-fluoro-2-((S)-3-isopropyl-2,3-dihydro-1H-pyrrolo[1,2,3-de]quinoxalin-5-yl)-1-methyl-1H-benzo[d]imidazol-5-yl)methanone], the IC50 in assay [1] (setting [3]) was no more than 100 nM; in assay [2] (setting [4]) it was 100 to 500 nM. Further, the “relative potency of separated isomers in the PAD4 biochemical assay” value in assay [2] was “more potent than Example 105”.
For the molecule `CC(C)C1CN(C)c2cccc3cc(-c4nc5cc(C(=O)N6C[C@H]7CC[C@@H]6[C@@H]7N)cc(F)c5n4C)n1c23` (stereo partly drawn) [Example 107, ((1R,4R,7R)-7-amino-2-azabicyclo[2.2.1]heptan-2-yl)(7-fluoro-2-(3-isopropyl-1-methyl-2,3-dihydro-1H-pyrrolo[1,2,3-de]quinoxalin-5-yl)-1-methyl-1H-benzo[d]imidazol-5-yl)methanone], the IC50 in assay [1] (setting [3]) and in assay [2] (setting [4]) was 100 to 500 nM in each case.
On to `Cn1c(-c2cc3cc(F)cc4c3n2C(C2CC2)CN4)nc2cc(C(=O)N3C[C@H]4CC[C@@H]3[C@@H]4N)cc(F)c21` (stereo partly drawn) [Example 122, ((1R,4R,7R)-7-amino-2-azabicyclo[2.2.1]heptan-2-yl)(2-(3-cyclopropyl-8-fluoro-2,3-dihydro-1H-pyrrolo[1,2,3-de]quinoxalin-5-yl)-7-fluoro-1-methyl-1H-benzo[d]imidazol-5-yl)methanone], for which the half-inhibitory concentration (IC50) in assay [1] (setting [3]) and in assay [2] (setting [4]) was 100 to 500 nM each time.
